Measured values taken from paper PMC10214526, “Semisynthetic LC3 Probes for Autophagy Pathways Reveal a Noncanonical LC3 Interacting Region Motif Crucial for the Enzymatic Activity of Human ATG3” (ACS Central Science, 2023).

Test system: ATG3 C1
Test: NaCl dependence of cross-linking of probe 2 with ATG3 C1
Format: biochemical, human
Details: probe 2 15 μM, ATG3 C1 15 μM, phosphate buffer, NaCl 0-500 mM, 37 °C, 30 min; n = 3
Description: Farnung et al. Supplementary Information […]
electrostatic representation of ATG3 LIR motif and GABARAP
Figure S13. Interaction of ATG3 and GABARAP is salt-dependent. a, ColabFold prediction of ATG3-GABARAP complex (in Fig. 1c) shown with its Coulombic potential. Only LIR motif of ATG3 shown for clarity.
LIRATG3 is mostly negatively charged and binds to a strongly positively charged surface on GABARAP. b, Binding of cyclized LIRATG3 peptide to GABARAP (0.2 μM) in the presence of varying amounts of NaCl. Binding was performed in triplicates and normalized to polarization for 0 mM NaCl. c, Modification of ATG3 C1 with 2 in the presence of increasing concentrations of NaCl (0 -500 mM). Coomassie Blue stained SDS-PAGE gel was analyzed by gel densitometry. d, Quantification of data shown in […]. […]
Figure S14. […] Lipidation was assessed by immunoblotting against LC3A/B. Lipidation was observed upon re-expression of ATG3 wt but not ATG3 C264A or ΔLIR. As a positive control wild-type HEK293T cells were starved and analyzed in parallel to ATG3 –/– cells. […]
SDS-PAGE (8-16%, Bio-Rad) and visualized by Coomassie staining. Gel bands were quantified by gel densitometry using ImageLab (Bio-Rad).
ATG3 C1 (15 μM) was mixed with GABARAP methyl fumarate 2 (15 μM) in PBS, and the reaction mixture was incubated at 37 °C for 30 min. […] Gel bands were quantified by gel densitometry using ImageLab […]

“GABARAP(ΔG116)–NHNH methyl-fumarate [compound 2]” was tested, and the “Effect of increasing NaCl on cross-linking with ATG3 C1” value was “reduced”.
